Measurements published in ChEMBL document CHEMBL4152302, “Benzo[d]thiazole-2-carbanilides as new anti-TB chemotypes: Design, synthesis, biological evaluation, and structure-activity relationship” (Eur J Med Chem, 2018).

How the values were obtained:
[1] = Cytotoxicity against mouse RAW264.7 cells assessed as inhibition of cell viability at 50 ug/ml after 72 hrs by MTT assay relative to control; type: cell-based; conditions: read-out: INH
[2] = test system: Mycobacterium tuberculosis; assay: Antimycobacterial activity against Mycobacterium tuberculosis H37Rv ATCC 27294 after 28 days by Two-fold serial dilution assay; type: functional; conditions: H37Rv ATCC 27294, 672 h
[3] = Selectivity index, ratio of cytotoxic concentration for mouse RAW264.7 cells to MIC99 for Mycobacterium tuberculosis H37Rv ATCC 27294; type: toxicity; conditions: read-out: Selectivity Index

SMILES	cytotoxicity at 72 h, 50 ug/ml [1]	MIC [2]	selectivity ratio [3]
COc1ccc(NC(=O)c2nc3ccccc3s2)cc1	24.6%	22 µM	
O=C(Nc1ccc(N2CCOCC2)cc1)c1nc2ccccc2s1	18.9%	4.6 µM	
CCOC(=O)c1nc2ccccc2s1		121 µM	
O=C(Nc1ccccc1)c1nc2ccccc2s1		98.3 µM	
CCOC(=O)c1nc2cc(Cl)ccc2s1		12.9 µM	
CCOC(=O)c1nc2cc(C(F)(F)F)ccc2s1		22.7 µM	
O=C(Nc1cccc(C(F)(F)F)c1)c1nc2cc(Cl)ccc2s1		70.1 µM	
Cc1cccc(NC(=O)c2nc3cc(C(F)(F)F)ccc3s2)c1	34.6%	4.64 µM	
O=C(Nc1ccc([N+](=O)[O-])cc1)c1nc2cc(Cl)ccc2s1		74.9 µM	
O=C(Nc1cccc(C(F)(F)F)c1)c1nc2cc(C(F)(F)F)ccc2s1	19.8%	16 µM	
COc1cccc(NC(=O)c2nc3cc(Cl)ccc3s2)c1	18.7%	2.45 µM	64
O=C(Nc1ccccc1Cl)c1nc2cc(C(F)(F)F)ccc2s1		70.1 µM	
COc1cc(NC(=O)c2nc3ccccc3s2)cc(OC)c1OC	30.1%	2.26 µM	64
COc1ccccc1NC(=O)c1nc2cc(Cl)ccc2s1		78.4 µM	
O=C(Nc1ccc(F)cc1)c1nc2ccccc2s1		> 91.8 µM	
Cc1ccc(NC(=O)c2nc3ccccc3s2)cc1		46.6 µM	
O=C(Nc1cccc([N+](=O)[O-])c1)c1nc2cc(C(F)(F)F)ccc2s1		68.1 µM	
COc1ccccc1NC(=O)c1nc2cc(C(F)(F)F)ccc2s1	43.2%	4.43 µM	
O=C(Nc1cccc(F)c1)c1nc2cc(Cl)ccc2s1	29.1%	5.09 µM	
O=C(Nc1ccc(Cl)cc1)c1nc2ccccc2s1		> 86.6 µM	
O=C(Nc1ccccc1N1CCOCC1)c1nc2cc(Cl)ccc2s1		66.9 µM	
O=C(Nc1ccccc1)c1nc2cc(Cl)ccc2s1		86.6 µM	
O=C(Nc1ccccc1)c1nc2cc(C(F)(F)F)ccc2s1		77.6 µM	
O=C(Nc1ccc(N2CCOCC2)c(F)c1)c1nc2cc(Cl)ccc2s1		31.9 µM	
O=C(Nc1cccc(F)c1)c1nc2cc(C(F)(F)F)ccc2s1		36.7 µM	
O=C(Nc1cccc(Cl)c1)c1nc2cc(Cl)ccc2s1		77.3 µM	
COc1cccc(NC(=O)c2nc3cc(C(F)(F)F)ccc3s2)c1	26.8%	4.43 µM	

SMILES	cytotoxicity at 72 h, 50 ug/ml [1]	MIC [2]	selectivity ratio [3]
O=C(Nc1ccc(N2CCOCC2)c(F)c1)c1nc2ccccc2s1		> 70 µM	
Cc1ccccc1NC(=O)c1nc2ccccc2s1		> 93.2 µM	
O=C(Nc1ccc(C(F)(F)F)cc1)c1nc2ccccc2s1	13.6%	2.42 µM	64
O=C(Nc1ccc([N+](=O)[O-])cc1)c1nc2cc(C(F)(F)F)ccc2s1	32.6%	2.12 µM	64
O=C(Nc1ccccc1N1CCOCC1)c1nc2cc(C(F)(F)F)ccc2s1		30.7 µM	
COc1cc(NC(=O)c2nc3cc(Cl)ccc3s2)cc(OC)c1OC		66 µM	
O=C(Nc1ccc(C(F)(F)F)cc1)c1nc2cc(Cl)ccc2s1	41%	4.37 µM	
O=C(Nc1ccc(C(F)(F)F)cc1)c1nc2cc(C(F)(F)F)ccc2s1		64 µM	
Cc1cccc(NC(=O)c2nc3cc(Cl)ccc3s2)c1	52.2%	20.6 µM	
O=C(Nc1cccc(C(F)(F)F)c1)c1nc2ccccc2s1		38.8 µM	
Cc1ccccc1NC(=O)c1nc2cc(C(F)(F)F)ccc2s1		74.3 µM	
O=C(Nc1ccc([N+](=O)[O-])cc1)c1nc2ccccc2s1	35.6%	20.9 µM	
COc1cccc(NC(=O)c2nc3ccccc3s2)c1		> 87.9 µM	
O=C(Nc1ccc(Br)cc1)c1nc2cc(Cl)ccc2s1	53.1%	4.24 µM	
COc1cc(NC(=O)c2nc3cc(C(F)(F)F)ccc3s2)cc(OC)c1OC	23.4%	1.89 µM	64
O=C(Nc1cccc(Cl)c1)c1nc2cc(C(F)(F)F)ccc2s1		35 µM	
O=C(Nc1ccc(Cl)cc1)c1nc2cc(Cl)ccc2s1	28.9%	2.35 µM	64
O=C(Nc1cccc(F)c1)c1nc2ccccc2s1	20.9%	22.9 µM	
O=C(Nc1ccc(N2CCOCC2)c(F)c1)c1nc2cc(C(F)(F)F)ccc2s1		29.4 µM	
O=C(Nc1cccc(Cl)c1)c1nc2ccccc2s1	26.8%	2.7 µM	64
O=C(Nc1ccc(Cl)cc1)c1nc2cc(C(F)(F)F)ccc2s1	36.7%	2.19 µM	64
O=C(Nc1ccc(N2CCOCC2)cc1)c1nc2cc(Cl)ccc2s1	42.3%	2.09 µM	64
O=C(Nc1ccccc1C(F)(F)F)c1nc2cc(Cl)ccc2s1		70.1 µM	
O=C(Nc1ccccc1C(F)(F)F)c1nc2cc(C(F)(F)F)ccc2s1	27.8%	2 µM	64
COc1ccc(NC(=O)c2nc3cc(Cl)ccc3s2)cc1		78.4 µM	
Cc1ccc(NC(=O)c2nc3cc(C(F)(F)F)ccc3s2)cc1	47.8%	4.64 µM	
Cc1cc(C)c(NC(=O)c2nc3ccccc3s2)c(C)c1	17.9%	5.26 µM	

SMILES	cytotoxicity at 72 h, 50 ug/ml [1]	MIC [2]	selectivity ratio [3]
O=C(Nc1cccc([N+](=O)[O-])c1)c1nc2cc(Cl)ccc2s1		37.5 µM	
O=C(Nc1ccc(F)cc1)c1nc2cc(C(F)(F)F)ccc2s1		73.5 µM	
O=C(Nc1ccccc1Cl)c1nc2cc(Cl)ccc2s1		77.3 µM	
O=C(Nc1cccc([N+](=O)[O-])c1)c1nc2ccccc2s1	38.4%	2.61 µM	64
Cc1cccc(NC(=O)c2nc3ccccc3s2)c1		> 93.2 µM	
O=C(Nc1ccc(F)cc1)c1nc2cc(Cl)ccc2s1	34.6%	5.09 µM	
COc1ccccc1NC(=O)c1nc2ccccc2s1	16.7%	11 µM	
Cc1ccc(NC(=O)c2nc3cc(Cl)ccc3s2)cc1	22.6%	5.15 µM	
O=C(Nc1ccc(Br)cc1)c1nc2cc(C(F)(F)F)ccc2s1		62.3 µM	
Cc1cc(C)c(NC(=O)c2nc3cc(Cl)ccc3s2)c(C)c1		75.6 µM	
O=C(Nc1ccccc1N1CCOCC1)c1nc2ccccc2s1		36.8 µM	
O=C(Nc1ccccc1F)c1nc2cc(Cl)ccc2s1	18.1%	5.09 µM	
COc1ccc(NC(=O)c2nc3cc(C(F)(F)F)ccc3s2)cc1	35.7%	2.21 µM	64
O=C(Nc1ccccc1F)c1nc2cc(C(F)(F)F)ccc2s1		73.5 µM	
Cc1ccccc1NC(=O)c1nc2cc(Cl)ccc2s1		82.6 µM	
O=C(Nc1ccccc1C(F)(F)F)c1nc2ccccc2s1		38.8 µM	
O=C(Nc1ccc(Br)cc1)c1nc2ccccc2s1		> 75 µM	
Cc1cc(C)c(NC(=O)c2nc3cc(C(F)(F)F)ccc3s2)c(C)c1		68.6 µM	
O=C(Nc1ccccc1F)c1nc2ccccc2s1	24.9%	11.5 µM	
O=C(Nc1ccc(N2CCOCC2)cc1)c1nc2cc(C(F)(F)F)ccc2s1		61.4 µM	
O=C(Nc1ccccc1Cl)c1nc2ccccc2s1	24%	5.4 µM	
CC[C@@H](CO)NCCN[C@@H](CC)CO [ETHAMBUTOL]		1.56 µg/mL	
NNC(=O)c1ccncc1 [ISONIAZID]		0.098 µg/mL	
NC(=O)c1cnccn1 [PYRAZINAMIDE]		6.25 µg/mL	
CO[C@H]1/C=C/O[C@@]2(C)Oc3c(C)c(O)c4c(O)c(c(/C=N/N5CCN(C)CC5)c(O)c4c3C2=O)NC(=O)/C(C)=C\C=C\[C@H](C)[C@H](O)[C@@H](C)[C@@H](O)[C@@H](C)[C@H](OC(C)=O)[C@@H]1C [RIFAMPIN]		0.197 µg/mL	
